Assay results from patent US5622982A, “Acylated aminoalkanimidazoles and - triazoles” (Sandoz Ltd., priority 1994, dated 1997).
Read-outs that look alike come from different tables or passages of the source.

Key:
Type in all cases: cell-based
25(OH)D3-1-hydroxylase = target: T1, 25(OH)D3-1-hydroxylase (Homo sapiens, UniProt O15528); test: Inhibition of vitamin D3-1-hydroxylase (oxidation of 3H-25(OH)D3, test a)); conditions: for IC50: test a), human keratinocytes, 1 hour, without calcitriol pretreatment
T1 construct: Confluent cultures of human keratinocytes in KGM; endogenous in cells; host or cells: normal human epidermal keratinocytes (adult skin from mammary reduction), generally second passage
T1 sequence (O15528 1-508): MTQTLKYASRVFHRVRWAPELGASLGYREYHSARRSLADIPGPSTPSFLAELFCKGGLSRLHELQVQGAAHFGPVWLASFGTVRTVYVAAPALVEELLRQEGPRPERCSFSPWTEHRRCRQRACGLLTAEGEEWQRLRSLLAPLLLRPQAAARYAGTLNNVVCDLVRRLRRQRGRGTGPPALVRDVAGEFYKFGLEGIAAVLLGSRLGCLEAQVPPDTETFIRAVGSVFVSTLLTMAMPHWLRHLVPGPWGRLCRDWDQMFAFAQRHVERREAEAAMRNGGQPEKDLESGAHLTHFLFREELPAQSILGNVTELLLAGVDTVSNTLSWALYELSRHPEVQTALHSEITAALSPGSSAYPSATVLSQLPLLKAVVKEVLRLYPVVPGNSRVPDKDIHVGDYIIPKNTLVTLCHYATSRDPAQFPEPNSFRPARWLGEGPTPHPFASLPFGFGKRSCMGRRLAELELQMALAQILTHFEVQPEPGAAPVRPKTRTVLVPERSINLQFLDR

[1] = target: T2, 25-hydroxyvitamin D3-hydroxylases which attack the C20-27-side chain of vitamin D3 (Homo sapiens, UniProt Q07973); test: Inhibition of side chain metabolism / vitamin D3-hydroxylases attacking the C20-27 side chain in calcitriol-pretreated keratinocytes (test a)); conditions: for inhibition of 25-hydroxyvitamin D3-hydroxylases which attack the C20-27 side chain (in words): selectivity versus calcitriol synthesis; for IC50: test a), human keratinocytes, pretreated with 10 nM calcitriol
T2 construct: Confluent human keratinocytes in 1 ml of KGM and in 6-well plates; endogenous in cells; host or cells: normal human epidermal keratinocytes pretreated overnight (16-17 h) with 10 nM calcitriol
T2 sequence (Q07973 36-514): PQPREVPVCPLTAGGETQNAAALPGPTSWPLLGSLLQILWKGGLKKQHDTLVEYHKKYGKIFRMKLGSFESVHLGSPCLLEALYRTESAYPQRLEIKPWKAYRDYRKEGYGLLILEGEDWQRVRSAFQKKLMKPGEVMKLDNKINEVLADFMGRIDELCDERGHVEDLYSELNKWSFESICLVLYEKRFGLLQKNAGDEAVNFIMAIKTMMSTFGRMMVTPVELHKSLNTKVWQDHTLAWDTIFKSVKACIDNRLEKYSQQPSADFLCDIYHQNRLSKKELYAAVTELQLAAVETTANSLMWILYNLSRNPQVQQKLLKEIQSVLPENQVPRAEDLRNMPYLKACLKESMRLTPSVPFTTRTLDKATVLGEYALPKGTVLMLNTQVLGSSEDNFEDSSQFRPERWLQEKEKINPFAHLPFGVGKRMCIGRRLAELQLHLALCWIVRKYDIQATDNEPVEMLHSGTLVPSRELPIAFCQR

human keratinocytes = test: 3H-Thymidine incorporation into human keratinocytes, antiproliferative effects of vitamin D metabolites in the presence of inhibitors (test b)); conditions: Keratinocyte; test b)
[2] = read-out: IC50 for stabilization of 3-epi 1,25(OH)2 D3 levels
[3] = read-out: IC50 for stabilization of levels of the sum of 1,25(OH)2 D3, 1,24,25(OH)3D3 and 1,24oxo,25(OH)2 D3
[4] = in presence of 1α,25(OH)2 D3, read-out: IC50 as regards the concentration required to double the antiproliferative effect of 1α,25(OH)2 D3
[5] = in presence of 25(OH)D3, read-out: IC50 as regards the concentration required to double the antiproliferative effect of 25(OH)D3

interference with calcitriol synthesis via the 25(OH)D3-1-hydroxylase (in words) (25(OH)D3-1-hydroxylase)	IC50 (25(OH)D3-1-hydroxylase) [nM]	inhibition of 25-hydroxyvitamin D3-hydroxylases which attack the C20-27 side chain (in words) [1]	IC50 [1, 2] [nM]	IC50 [1, 3] [nM]	Compound	IC50 (human keratinocytes; [4]) [nM]	IC50 (human keratinocytes; [5]) [nM]
without interfering with its synthesis	620	selective inhibitors	12	19	O=C(NC[C@@H](c1ccccc1)n1ccnc1)c1ccc(-c2ccc(Cl)cc2)cc1 [Example 9, N-[4-(4-Chlorophenyl)benzoyl]-2-(1H-imidazol-1-yl)-2(R)-phenyl-1-aminoethane]	35	12
without interfering with its synthesis	530	selective inhibitors	40	45	O=C(NC[C@H](c1ccccc1)n1ccnc1)c1ccc(-c2ccc(Cl)cc2)cc1 [Example 8, N-[4-(4-Chlorophenyl)benzoyl]-2-(1H-imidazol-1-yl)-2(S)-phenyl-1-aminoethane]	30	11
